Measurements from ChEMBL document CHEMBL1145262, “Aryl sulfones: a new class of gamma-secretase inhibitors” (Bioorg Med Chem Lett, 2005).

Target: Gamma-secretase
Assay: In vitro inhibition of gamma-secretase as amyloid peptide production in SH-SY5Y cells
Type: functional, cell-based, Homo sapiens

Going from O=S(=O)(c1ccc(Cl)cc1)C1(c2ccccc2)CCCCC1 to O=S(=O)(c1ccc(Cl)cc1)C1(c2ccccc2F)CCCCC1, the IC50 falls from 461 nM to 55 nM (8.4-fold).

Going from CC(C)N(c1cc(F)ccc1F)S(=O)(=O)c1ccc(Cl)cc1 to C[C@H](CO)N(c1cc(F)ccc1F)S(=O)(=O)c1ccc(Cl)cc1, the IC50 falls from 170 nM to 27 nM (6.3-fold).

First: CC(C)C(c1cc(F)ccc1F)S(=O)(=O)c1ccc(Cl)cc1 (centres undefined)
Second: CC(CO)C(c1cc(F)ccc1F)S(=O)(=O)c1ccc(Cl)cc1 (centres undefined)
The IC50 of the first is 4.3-fold lower: 70 nM for the first, 304 nM for the second.

Compared with CC(CCO)C(c1cc(F)ccc1F)S(=O)(=O)c1ccc(Cl)cc1 (centres undefined), CC(c1cc(F)ccc1F)S(=O)(=O)c1ccc(Cl)cc1 (centres undefined) is 71-fold higher in IC50: 35 nM for the first, 2470 nM for the second. The first is the more potent here.

Going from COC(=O)C(C)C(c1cc(F)ccc1F)S(=O)(=O)c1ccc(Cl)cc1 (centres undefined) to O=S(=O)(Nc1cc(F)ccc1F)c1ccc(Cl)cc1, the IC50 rises from 253 nM to greater than 10000 nM.

Going from O=S(=O)(Cc1cc(F)ccc1F)c1ccc(Cl)cc1 to CN(c1cc(F)ccc1F)S(=O)(=O)c1ccc(Cl)cc1, the IC50 falls from 4410 nM to 1900 nM (2.3-fold). The second is the more potent here.

Going from O=S(=O)(c1ccc(Cl)cc1)C1(c2cccc(F)c2)CCCCC1 to O=S(=O)(c1ccc(Cl)cc1)C1(c2cc(F)ccc2F)CCCCC1, the IC50 falls from 249 nM to 3 nM (83-fold). The second is the more potent here.

Going from O=S(=O)(c1ccccc1)C1(c2cc(F)ccc2F)CCCCC1 to O=C1CCC(c2cc(F)ccc2F)(S(=O)(=O)c2ccc(Cl)cc2)CC1, the IC50 falls from 98 nM to 22 nM (4.5-fold). The second is the more potent here.

Compared with COC(=O)C1CC(c2cc(F)ccc2F)(S(=O)(=O)c2ccc(Cl)cc2)CCC1=O (centres undefined), O=S(=O)(c1ccc(Cl)cc1)C1(c2cc(F)ccc2F)CC2CCC(C2)C1 (stereo in doubt; 19) is 8.7-fold lower in IC50: 104 nM for the first, 12 nM for the second. The second is the more potent here.

Molecule O=S(=O)(c1ccc(Cl)cc1)C1(c2cc(F)ccc2F)CC2CCC(C2)C1 (stereo in doubt; 20) has an IC50 of 94 nM.
